Source: patent US7906546B2, “Tetrahydrocarbazoles and derivatives” (Hoffmann-La Roche Inc., priority 2004, dated 2011)

How the values were obtained:
[1] = biological target: T1, human LXRα (Homo sapiens, UniProt Q13133); experiment: Radioligand binding assay (scintillation proximity), LXRalpha; details: GST-LXRα-LBD on SPA beads, radioligand displacement
T1 construct: human LXRα (aa 164 to 447); made in house; host or cells: E. coli BL21(pLysS)
T1 sequence (Q13133 164-447): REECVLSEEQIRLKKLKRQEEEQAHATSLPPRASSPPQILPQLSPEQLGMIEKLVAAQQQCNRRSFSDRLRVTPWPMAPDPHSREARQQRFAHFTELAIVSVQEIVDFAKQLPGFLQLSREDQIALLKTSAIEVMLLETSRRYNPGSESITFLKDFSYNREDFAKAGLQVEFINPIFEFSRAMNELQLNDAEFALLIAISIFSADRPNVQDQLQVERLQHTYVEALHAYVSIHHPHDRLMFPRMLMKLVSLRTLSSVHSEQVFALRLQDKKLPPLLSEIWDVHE
Experimental: (§1) Mammalian expression vectors were constructed to express full-length human LXRα and LXRβ. […] To accomplish this, the portions of the sequences encoding the LBDs were amplified from full-length clones by PCR and then subcloned into the plasmid vectors.
(§2) Induction, expression, and purification of GST-LBD fusion proteins were performed in E. coli strain BL21(pLysS) cells by standard methods (Ref: Current Protocols in Molecular Biology, Wiley Press, edited by Ausubel et al).
(§3) LXRα and LXRβ receptor binding were assayed in buffer consisting of 50 mM HEPES, pH 7.4, 10 mM NaCl, 5 mM MgCl2. For each 96-well reaction, 500 ng of GST-LXRα-LBD or 700 ng of GST-LXRβ-LBD fusion proteins were bound to 80 μg or 40 μg SPA beads (Pharmacia Amersham) respectively, in a final volume of 50 μl by shaking. The resulting slurry was incubated for 1 h at RT and centrifuged for 2 min at 1300×g. The supernatant containing unbound protein was removed, and the semi-dry pellet containing the receptor-coated beads was re-suspended in 50 μl of buffer. […] All binding assays were performed in 96-well plates and the amount of bound ligand was measured on a Packard TopCount using OptiPlates (Packard). […]

[2] = biological target: T2, human LXRβ (Homo sapiens, UniProt P55055); experiment: Radioligand binding assay (scintillation proximity), LXRbeta; details: GST-LXRβ-LBD on SPA beads, radioligand displacement
T2 construct: human LXRβ (aa 155 to 460); made in house; host or cells: E. coli BL21(pLysS)
T2 sequence (P55055 155-460): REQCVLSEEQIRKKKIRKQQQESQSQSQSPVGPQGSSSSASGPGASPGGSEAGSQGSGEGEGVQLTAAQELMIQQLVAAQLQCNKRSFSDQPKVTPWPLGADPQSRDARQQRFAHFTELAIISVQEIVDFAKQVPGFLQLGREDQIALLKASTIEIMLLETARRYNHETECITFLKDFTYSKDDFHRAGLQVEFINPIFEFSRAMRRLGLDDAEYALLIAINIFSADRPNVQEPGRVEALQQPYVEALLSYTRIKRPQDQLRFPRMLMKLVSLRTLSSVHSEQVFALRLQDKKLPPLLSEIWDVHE
Experimental: as §1, §2, §3

Cc1nnc([C@@](F)([C@@H]2Cc3[nH]c4ccc(Cl)cc4c3C2)S(=O)(=O)c2cccc(N(C)C)c2)o1 (racemic) [(RS, SR) {3-[(7-chloro-1,2,3,4-tetrahydro-cyclopenta[b]indol-2-yl)-fluoro-(5-methyl-[1,3,4]oxadiazol-2-yl)-methanesulfonyl]-phenyl}-dimethyl-amine] was tested, and the IC50 [1] was 43 nM and the IC50 [2] was 6 nM.
COC(=O)[C@@](C)([C@H]1CCc2c([nH]c3ccc(Cl)cc23)C1)S(=O)(=O)c1ccccc1 (racemic) [(RS,SR)-2-benzenesulfonyl-2-(6-chloro-2,3,4,9-tetrahydro-1H-carbazol-2-yl)-propionic acid methyl ester] was tested, and the IC50 [1] was 1600 nM and the IC50 [2] was 270 nM.
